Laboratory results reported in patent US8765949B2, “CCR2 receptor antagonists and uses thereof” (Boehringer Ingelheim International GmbH, priority 2009, dated 2014).

Target: T1, CCR2 (Homo sapiens, UniProt P41597)
T1 construct: Membranes were prepared from THP-1 cells; endogenous in cells; host or cells: THP-1 (human acute monocytic leukaemia cells), membrane preparation
T1 sequence (P41597 1-360 isoform P41597-2): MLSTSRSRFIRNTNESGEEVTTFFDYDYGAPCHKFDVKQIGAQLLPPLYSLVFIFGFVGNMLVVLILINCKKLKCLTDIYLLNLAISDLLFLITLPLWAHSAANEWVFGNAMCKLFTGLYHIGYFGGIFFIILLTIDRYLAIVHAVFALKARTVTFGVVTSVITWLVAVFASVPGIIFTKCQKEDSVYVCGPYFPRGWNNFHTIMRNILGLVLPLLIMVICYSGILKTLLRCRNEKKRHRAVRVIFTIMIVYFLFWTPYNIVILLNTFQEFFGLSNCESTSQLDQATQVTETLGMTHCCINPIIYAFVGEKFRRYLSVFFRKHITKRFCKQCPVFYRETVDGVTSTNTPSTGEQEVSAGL
Assay: CCR2 receptor membrane binding assay ([125I]MCP-1, THP-1 membranes, SPA beads)
Conditions: dissociation constant hKi; THP-1 cell membranes, [125I]MCP-1, bound radioactivity after 8 h
Method: The above exemplary substances have been tested for binding to CCR2 using a binding assay as outlined herein below:
THP-1 cells (human acute monocytic leukaemia cells) were cultured under standardized conditions at 37° C. and 5% CO2 in a humidified incubator. THP-1 cells were cultivated in RPMI 1640 medium (Gibco 21875) containing 1% MEM-NEAA (Gibso 11140) 2 mM L-glutamine, 1.5 g/L sodium bicarbonate, 4.5 g/L glucose, 10 mM HEPES and 1.0 mM sodium pyruvate, 90%; 10% fetal calf serum (FCS Gibco 10500-064).
Membranes were prepared from THP-1 cells. THP-1 cells were centrifuged at 300×g at 4° C. for 10 min. The cell pellet was resuspendet in Phosphate Buffer Saline (PBS, including 10 μM Pefabloc and a protease inhibitor mix ‘complete’, Boehringer Mannheim (1 tablet/50 ml)), to a concentration of […]. The membrane preparation was performed by disrupting the cells by nitrogen […] (at 50 bar, for 1 h) in a “Nitrogen Bombe” (Parr Instrument). Cell debris was removed by centrifugation (800×g at 4° C., 1 min). The supernatant was centrifuged at 80000×g, 4° C. for 30 min to sediment the cell membranes. Usually 50 mg of protein (Bradford assay) were yielded from 1×10E9 cells. The membranes were resuspendet in 25 mM HEPES, 25 mM MgCl2, 1 mM CaCl2, 10% Glycerine for storage in aliquots at −80° C. in 25 mM HEPES, 25 mM MgCl2, 1 mM CaCl2, 10% Glycerine and stored at −80° C.
Receptor Membrane Binding Assay:
Perkin Elmer NEX 332 Jod 125 MCP-1, Stock: 2200 Ci/mmol solved in 2000 μl assay buffer, stored at −20° C. THP-1 membrane were adjusted with 25 mM HEPES, pH 7.2; 5 mM MgCl2; 0.5 mM CaCl2; 0.2% BSA assay buffer to a concentration of 2.5 μg/15 μl. Amersham Biosciences PVT-WGA Beads (RPNQ0001) were adjusted with assay buffer to a concentration of 0.24 mg/30 μl. For preparation of the membrane-bead-suspension membranes and beads were incubated for 30 min at RT under rotation (60 rpm) with a ratio of 1:2. Test compounds dissolved in 100% DMSO to a concentration of 10 mM and are further diluted with 100% DMSO to 1 mM. All additional compound dilutions were obtained with assay buffer, final 1% DMSO. Compounds, membrane-bead-suspension and [125I]MCP-1 (ca. 25000 cpm/10 μl) were incubated. Bound radioactivity was determined by scintillation counter after 8 h. Determination of affinity of test compounds (dissociation constant hKi) is calculated by iterative fitting of experimental data using the “easy sys” program, which is based on law of mass action (Schittkowski K. (1994), Numerische Mathematik, Vol. 68, 129-142).

Question: With `CO[C@H]1COCC[C@H]1NC1CCN(C(=O)c2ncnc(NC[C@H]3CCC[C@@H](c4cccc(C)c4)O3)c2C)CC1` [Example 48] as the compound, how does the Ki read?
Answer: 7 nM

Question: For `CO[C@H]1COCC[C@H]1NC1CCN(C(=O)c2ncnc(NC[C@H]3CCC[C@@H](c4ccccc4)O3)c2C)CC1` [Example 40], which Ki is on record?
Answer: 26 nM

Question: Which Ki does the source give for `CO[C@H]1COCC[C@H]1NC1CCN(C(=O)c2cc(NC[C@H]3CCC[C@@H](c4ccc(OC(F)(F)F)cc4)O3)nc(C(F)(F)F)n2)CC1` [Example 53m] here?
Answer: 0.3 nM

Question: `CCS(=O)(=O)N(C)C1CCN(C2CCN(C(=O)c3ncnc(NC[C@H]4CCC[C@@H](c5ccc(Cl)cc5)O4)c3C)CC2)CC1` [Example 27] was tested. Which Ki did it give?
Answer: 12 nM

Question: `COc1nc(NC[C@H]2CCC[C@@H](c3ccc(OC(F)(F)F)cc3)O2)cc(C(=O)N2CCC(N[C@@H]3CCOC[C@@H]3OC)CC2)n1` [Example 53q] was tested. Which Ki did it give?
Answer: 1 nM

Question: For `CO[C@@H]1COCC[C@@H]1NC1CCN(C(=O)c2nc(C(F)(F)F)nc(NC[C@H]3CCC[C@@H](c4ccccc4)O3)c2C)CC1` [Example 53ai], which Ki is on record?
Answer: 1.1 nM

Question: `CO[C@H]1COCC[C@H]1NC1CCN(C(=O)c2nccc(NC[C@H]3CCC[C@@H](c4ccc(C)cc4)O3)c2C)CC1` [Example 53j] was tested. Which Ki did it give?
Answer: 21 nM

Question: Which Ki does the source give for `COc1nc(NC[C@H]2CCC[C@@H](c3ccc(C(F)(F)F)cc3)O2)c(C)c(C(=O)N2CCC(N[C@@H]3CCOC[C@@H]3OC)CC2)n1` [Example 53ab] here?
Answer: 1 nM

Question: `Cc1ccc([C@@H]2CCC[C@H](CNc3ncnc(C(=O)N4CCC(N5CCC(NS(C)(=O)=O)CC5)CC4)c3C)O2)cc1` [Example 9] was tested. Which Ki did it give?
Answer: 13 nM

Question: `Cc1ccc([C@H]2CCC[C@@H](CNc3ncnc(C(=O)N4CCC(N5CCC(N(C)S(C)(=O)=O)CC5)CC4)c3C)O2)cc1` [Example 19] was tested. Which Ki did it give?
Answer: 162 nM

Question: With `Cc1c(NC[C@H]2CCC[C@@H](c3ccc(C(F)(F)F)cc3)O2)ncnc1C(=O)N1CCC(NC2CCOCC2F)CC1` (stereo partly drawn) [Example 53u] as the compound, how does the Ki read?
Answer: 3 nM

Question: With `CO[C@@H]1COCC[C@@H]1NC1CCN(C(=O)c2ncnc(NC[C@@H]3CCC[C@H](c4ccc(OC(F)(F)F)cc4)O3)c2C)CC1` [Example 53d] as the compound, how does the Ki read?
Answer: 19 nM

Question: How did the Ki turn out when `COc1nc(NC[C@H]2CCC[C@@H](c3ccc(C(F)(F)F)cc3)O2)c(C)c(C(=O)N2CCC(N[C@H]3CCOC[C@H]3OC)CC2)n1` [Example 53ac] was run?
Answer: 0.8 nM

Question: `Cc1ccc([C@@H]2CCC[C@H](CNc3ncnc(C(=O)N4CCC(N5CCC(N(C)S(C)(=O)=O)CC5)CC4)c3C)O2)cc1` [Example 1] was tested. Which Ki did it give?
Answer: 8 nM

Question: Which Ki does the source give for `COc1nc(NC[C@H]2CCC[C@@H](c3ccc(C(F)(F)F)cc3)O2)cc(C(=O)N2CCC(N[C@H]3CCOC[C@H]3OC)CC2)n1` [Example 53p] here?
Answer: 0.8 nM

Question: `COc1nc(NC[C@H]2CCC[C@@H](c3ccc(C)cc3)O2)c(C)c(C(=O)N2CCC(N[C@H]3CCOC[C@H]3OC)CC2)n1` [Example 53aa] was tested. Which Ki did it give?
Answer: 2 nM

Question: `Cc1ccc([C@@H]2CCC[C@H](CNc3nc(C)nc(C(=O)N4CCC(N5CCC(N(C)S(C)(=O)=O)CC5)CC4)c3C)O2)cc1` [Example 18] was tested. Which Ki did it give?
Answer: 10 nM

Question: Which Ki does the source give for `CO[C@@H]1COCC[C@@H]1NC1CCN(C(=O)c2ncnc(NC[C@H]3CCC[C@@H](c4ccccc4)O3)c2C)CC1` [Example 38] here?
Answer: 6 nM

Question: How did the Ki turn out when `Cc1ccc([C@H]2CCC[C@@H](CNc3ncnc(C(=O)N4CCC(N5CCC(N(C)S(C)(=O)=O)CC5)CC4)c3C)O2)cc1F` [Example 28d] was run?
Answer: 12 nM

Question: With `Cc1c(NC[C@@H]2CCC[C@H](c3ccc(C(F)(F)F)cc3)O2)ncnc1C(=O)N1CCC(N2CCC(N(C)S(C)(=O)=O)CC2)CC1` [Example 2] as the compound, how does the Ki read?
Answer: 151 nM

Question: `Cc1cccc([C@H]2CCC[C@@H](CNc3ncnc(C(=O)N4CCC(N5CCC(N(C)S(C)(=O)=O)CC5)CC4)c3C)O2)c1` [Example 23] was tested. Which Ki did it give?
Answer: 494 nM

Question: For `Cc1c(NC[C@H]2CCC[C@@H](c3ccc(C(F)(F)F)nc3)O2)ncnc1C(=O)N1CCC(N2CCC(N(C)S(C)(=O)=O)CC2)CC1` [Example 25], which Ki is on record?
Answer: 418 nM

Question: With `Cc1c(NC[C@H]2CCC[C@@H](c3ccc(OC(F)(F)F)cc3)O2)ncnc1C(=O)N1CCC(N[C@@H]2CCOC[C@@H]2F)CC1` [Example 53ak] as the compound, how does the Ki read?
Answer: 0.8 nM

Question: With `CO[C@H]1COCC[C@H]1NC1CCN(C(=O)c2cc(NC[C@H]3CCC[C@@H](c4ccc(C)cc4)O3)ncn2)CC1` [Example 28h] as the compound, how does the Ki read?
Answer: 4 nM
